These compounds were tested against T1, human PAD4 (Homo sapiens, UniProt Q9UM07) (assay: In vitro PAD4 BAEE biochemical assay). Conditions: BAEE substrate 3 mM, 5 nM PAD4, 2 mM calcium chloride; geometric mean of multiple experiments.
T1 construct: human PAD4 (NM_012387), A2-P663, was PCR amplified; His-SUMO (N, cleaved yes); made in house; host or cells: E. coli BL21(DE3)
T1 sequence (Q9UM07 2-663): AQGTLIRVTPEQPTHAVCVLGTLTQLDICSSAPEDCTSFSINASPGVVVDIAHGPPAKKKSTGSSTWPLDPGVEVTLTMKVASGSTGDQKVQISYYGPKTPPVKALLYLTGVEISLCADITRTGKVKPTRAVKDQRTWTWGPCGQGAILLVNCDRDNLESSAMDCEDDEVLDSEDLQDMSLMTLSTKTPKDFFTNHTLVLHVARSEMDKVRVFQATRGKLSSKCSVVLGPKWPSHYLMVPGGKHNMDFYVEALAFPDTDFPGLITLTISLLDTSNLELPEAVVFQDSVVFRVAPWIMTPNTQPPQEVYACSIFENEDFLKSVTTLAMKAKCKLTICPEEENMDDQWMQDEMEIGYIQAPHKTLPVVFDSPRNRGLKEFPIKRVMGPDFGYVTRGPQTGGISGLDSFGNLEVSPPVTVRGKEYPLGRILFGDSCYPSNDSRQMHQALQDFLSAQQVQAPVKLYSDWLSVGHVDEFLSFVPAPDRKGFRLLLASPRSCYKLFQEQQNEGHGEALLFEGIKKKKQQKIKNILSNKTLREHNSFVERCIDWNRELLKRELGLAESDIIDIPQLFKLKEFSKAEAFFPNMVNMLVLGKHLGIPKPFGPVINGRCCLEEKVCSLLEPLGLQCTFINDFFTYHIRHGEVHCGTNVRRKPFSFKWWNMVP
Procedure, shortened: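 Fluorescence read-out (ex 405/em 535 nm) of isoindole formed from ammonia, o-phthalaldehyde and DTT after EDTA stop. Reaction: 5 nM PAD4, 2 mM CaCl2, 3 mM BAEE, 2 h, 25 °C, after 30 min enzyme–compound preincubation. Normalised to BB-Cl-Amidine (50 µM) and DMSO controls.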
Work on `C[C@@H]1[C@H](N)CCCN1C(=O)c1cc(Cl)c2c(c1)nc(-c1cc3ccc4nc3n1CC(F)(F)CCC[C@@H]1C[C@H]1C(=O)N[C@@H]4C)n2C1CC1` [Example 805, (2~{R},5~{R},7~{R})-14-[5-[(2~{R},3~{R})-3-amino-2-methyl-piperidine-1-carbonyl]-7-chloro-1-cyclopropyl-benzimidazol-2-yl]-11,11-difluoro-2-methyl-3,13,19-triazatetracyclo[11.5.2.0^ {5,7}.0^{16,20}]icosa-1(18),14,16,19-tetraen-4-one] yielded an IC50 of 6 nM.
Work on `CO[C@@H]1CCN(C(=O)c2cc(Cl)c3c(c2)nc(-c2cc4ccc5nc4n2CC(F)(F)CCC[C@@H]2C[C@H]2C(=O)N[C@@H]5C)n3C2CC2)C[C@@H]1N` [Example 806, (2~{R},5~{R},7~{R})-14-[5-[(3~{S},4~{R})-3-amino-4-methoxy-piperidine-1-carbonyl]-7-chloro-1-cyclopropyl-benzimidazol-2-yl]-11,11-difluoro-2-methyl-3,13,19-triazatetracyclo[11.5.2.0^ {5,7}.0^{16,20}] icosa-1(18),14,16,19-tetraen-4-one] yielded an IC50 of 42 nM.
`C[C@H]1NC(=O)c2ccc(Cl)nc2CCCCCn2c(-c3nc4cc(C(=O)N5C[C@H](N)CC[C@@H]5C)cc(F)c4n3C3CC3)cc3ccc1nc32` [Example 807, (2~{R})-17-[5-[(2~{S},5~{R})-5-amino-2-methyl-piperidine-1-carbonyl]-1-cyclopropyl-7-fluoro-benzimidazol-2-yl]-8-chloro-2-methyl-3,9,16,22-tetrazatetracyclo[14.5.2.0^ {5,10}.0^{19,23}]tricosa-1(21),5(10),6,8,17,19,22-heptaen-4-one] gave an IC50 of 31 nM.
Compound `C[C@H]1NC(=O)c2ccc(Cl)nc2CCCCCn2c(-c3nc4cc(C(=O)N5[C@H]6CC[C@@H]5[C@H](N)C6)cc(F)c4n3C3CC3)cc3ccc1nc32` [Example 808, (2~{R})-17-[5-[(1~{R},2~{R},4~ {S})-2-amino-7-azabicyclo [2.2.1]heptane-7-carbonyl]-1-cyclopropyl-7-fluoro-benzimidazol-2-yl]-8-chloro-2-methyl-3,9,16,22-tetrazatetracyclo[14.5.2.0^ {5,10}.0^{19,23}]tricosa-1(21),5(10),6,8,17,19,22-heptaen-4-one] has an IC50 of 15 nM.
`COc1cc(C(=O)N2C[C@H](N)[C@@H]3CC[C@H]2C3)cc2nc(-c3cc4ccc5nc4n3CCCCCc3nc(Cl)ccc3C(=O)N[C@@H]5C)n(C3CC3)c12` [Example 809, (2˜{R})-17-[5-[(1˜{S},4˜{R},5˜{R})-4-amino-2-azabicyclo[3.2.1]octane-2-carbonyl]-1-cyclopropyl-7-methoxy-benzimidazol-2-yl]-8-chloro-2-methyl-3,9,16,22-tetrazatetracyclo[14.5.2.0^{5,10}.0^{19,23}]tricosa-1(21),5(10),6,8,17,19,22-heptaen-4-one] gave an IC50 of 39 nM.
`C[C@H]1NC(=O)c2cnc(Cl)cc2CCCCCn2c(-c3nc4cc(C(=O)N5C[C@H](N)[C@@H]6CC[C@H]5C6)cc(F)c4n3C3CC3)cc3ccc1nc32` [Example 810, (2~{R})-17-[5-[(1~{S),4~{R},5~ {R})-4-amino-2-azabicyclo [3.2.1]octane-2-carbonyl]-1-cyclopropyl-7-fluoro-benzimidazol-2-yl]-8-chloro-2-methyl-3,7,16,22-tetrazatetracyclo[14.5.2.0^ {5,10}.0^{19,23}] tricosa-1(21),5(10),6,8,17,19, 22-heptaen-4-one] showed an IC50 of 25 nM.
With `COc1cc(C(=O)N2C[C@H](N)[C@@H]3CC[C@H]2C3)cc2nc(-c3cc4ccc5nc4n3CCCCCc3nc(Cl)ccc3C(=O)N[C@@H]5C)c(C)n12` [Example 811, (2~{R})-17-[7-[(1~{S),4~ {R},5~{R})-4-amino-2-azabicyclo[3.2.1]octane-2-carbonyl]-5-methoxy-3-methyl-imidazo[1,2-a]pyridin-2-yl]-8-chloro-2-methyl-3,9,16,22-tetrazatetracyclo[14.5.2.0^ {5,10).0^{19,23}]tricosa-1(21),5(10),6,8,17,19,22-heptaen-4-one] the IC50 was 26 nM.
With `C[C@H]1NC(=O)c2ccc(Cl)nc2CCCCCn2c(-c3nc4cc(C(=O)N5C[C@H](N)[C@@H]6CC[C@H]5C6)cc(Cl)c4n3C3CC3)cc3ccc1nc32` [Example 812, (2~{R})-17-[5-[(1~{S},4~{R}, 5~{R})-4-amino-2-azabicyclo [3.2.1]octane-2-carbonyl]-7-chloro-1-cyclopropyl-benzimidazol-2-yl]-8-chloro-2-methyl-3,9,16,22-tetrazatetracyclo[14.5.2.0^ {5,10}.0^{19,23}]tricosa-1(21),5(10),6,8,17,19,22-heptaen-4-one] the IC50 was 31 nM.
With `C[C@H]1NC(=O)c2ccc(C3CC3)nc2CCCCCn2c(-c3nc4cc(C(=O)N5C[C@H](N)[C@@H]6CC[C@H]5C6)cc(F)c4n3C3CC3)cc3ccc1nc32` [Example 813, (2˜{R})-17-[5-[(1˜{S},4˜{R},5˜{R})-4-amino-2-azabicyclo[3.2.1]octane-2-carbonyl]-1-cyclopropyl-7-fluoro-benzimidazol-2-yl]-8-cyclopropyl-2-methyl-3,9,16,22-tetrazatetracyclo[14.5.2.0^{5,10}.0^{19,23}]tricosa-1(21),5(10),6,8,17,19,22-heptaen-4-one] the IC50 was 26 nM.
With `C[C@H]1NC(=O)c2ccc(Cl)nc2CCCC(F)(F)Cn2c(-c3nc4cc(C(=O)N5C[C@H](N)[C@@H]6CC[C@H]5C6)cc(F)c4n3C3CC3)cc3ccc1nc32` [Example 814, (2~{R})-17-[5-[(1~{S), 4~{R},5~{R})-4-amino-2-azabicyclo[3.2.1]octane-2-carbonyl]-1-cyclopropyl-7-fluoro-benzimidazol-2-yl]-8-chloro-14,14-difluoro-2-methyl-3,9,16,22-tetrazatetracyclo[14.5.2.0^ {5,10).0^{19,23}]tricosa-1(21),5(10),6,8,17,19,22-heptaen-4-one] the IC50 was 38 nM.
Work on `COc1cc(C(=O)N2C[C@H](N)[C@@H]3CC[C@H]2C3)cc2nc(-c3cc4ccc5nc4n3CCCCC[C@]3(F)C[C@H]3C(=O)N[C@@H]5C)c(C)n12` [Example 815, (2~{R},5~{S},7~{S})-14-[7-[(1~{S},4~{R},5~{R})-4-amino-2-azabicyclo[3.2.1]octane-2-carbonyl]-5-methoxy-3-methyl-imidazo[1,2-a]pyridin-2-yl]-7-fluoro-2-methyl-3,13,19-triazatetracyclo [11.5.2.0^{5,7}.0^{16,20}] icosa-1(18),14,16,19-tetraen-4-one] yielded an IC50 of 26 nM.
For `COc1cc(C(=O)N2C[C@H](N)[C@@H]3CC[C@H]2C3)cc2nc(-c3cc4ccc5nc4n3CCCCC[C@]3(F)C[C@H]3C(=O)N[C@@H]5C)n(C3CC3)c12` [Example 816, (2~{R},5~{S},7~{S})-14-[5-[(1~{S},4~{R},5~{R})-4-amino-2-azabicyclo[3.2.1]octane-2-carbonyl]-1-cyclopropyl-7-methoxy-benzimidazol-2-yl]-7-fluoro-2-methyl-3,13,19-triazatetracyclo[11.5.2.0^ {5,7}.0^{16,20}]icosa-1 (18),14,16,19-tetraen-4-one], the IC50 was 19 nM.
Work on `COCCn1c(-c2cc3ccc4nc3n2CCCCC[C@@H]2C[C@H]2C(=O)N[C@@H]4C)nc2cc(C(=O)N3C[C@H](N)[C@@H]4CC[C@H]3C4)cc(OC)c21` [Example 817, (2~{R},5~{R},7~{R})-14-[5-[(1~{S},4~{R},5~{R})-4-amino-2-[3.2.1]octane-2-carbonyl]-7-methoxy-1-(2-methoxyethyl)benzimidazol-2-yl]-2-methyl-3,13,19-triazatetracyclo[11.5.2.0^ {5,7}.0^{16,20}]icosa-1(18),14,16,19-tetraen-4-one] yielded an IC50 of 13 nM.
`COc1cc(C(=O)N2C[C@H](N)[C@@H]3CC[C@H]2C3)cc2nc(-c3cc4ccc5nc4n3CCCCCc3cc(Cl)ncc3C(=O)N[C@@H]5C)n(C3CC3)c12` [Example 818, (2~{R})-17-[5-[(1~{S},4~{R}, 5~{R})-4-amino-2-azabicyclo[3.2.1]octane-2-carbonyl]-1-cyclopropyl-7-methoxy-benzimidazol-2-yl]-8-chloro-2-methyl-3,7,16,22-tetrazatetracyclo[14.5.2.0^ {5,10).0^{19,23}]tricosa-1(21),5(10),6,8,17,19,22-heptaen-4-one] showed an IC50 of 12 nM.
In the case of `COc1cc(C(=O)N2C[C@H](N)[C@@H]3CC[C@H]2C3)cc2nc(-c3cc4ccc5nc4n3CCCCCc3nc(C(F)F)ccc3C(=O)N[C@@H]5C)n(C3CC3)c12` [Example 819, (2~{R})-17-[5-[(1~{S},4~{R}, 5~{R})-4-amino-2-azabicyclo [3.2.1]octane-2-carbonyl]-1-cyclopropyl-7-methoxy-benzimidazol-2-yl]-8-(difluoromethyl)-2-methyl-3,9,16,22-tetrazatetracyclo[14.5.2.0^ {5,10}.0^{19,23}] tricosa-1(21),5(10),6,8,17, 19,22-heptaen-4-one], the IC50 is reported as 10 nM.
`C[C@H]1NC(=O)c2ccc(C#Cc3ccccc3)nc2CCCCCn2c(-c3nc4cc(C(=O)N5C[C@H](N)[C@@H]6CC[C@H]5C6)cc(F)c4n3C3CC3)cc3ccc1nc32` [Example 820, (2˜{R})-17-[5-[(1˜{S},4˜{R},5˜{R})-4-amino-2-azabicyclo[3.2.1]octane-2-carbonyl]-1-cyclopropyl-7-fluoro-benzimidazol-2-yl]-2-methyl-8-(2-phenylethynyl)-3,9,16,22-tetrazatetracyclo[14.5.2.0^{5,10}.0^{19,23}]tricosa-1(21),5(10),6,8,17,19,22-heptaen-4-one] gave an IC50 of 168 nM.
Compound `COc1cc(C(=O)N2CC[C@@H](OC)[C@@H](N)C2)cc2nc(-c3cc4ccc5nc4n3CC(F)(F)CCCCC3(CC(F)(F)C3)C(=O)N[C@@H]5C)n(C)c12` [Example 821, (11~{R})-17-[5-[(3~{S),4~ {R})-3-amino-4-methoxy-piperidine-1-carbonyl]-7-methoxy-1-methyl-benzimidazol-2-yl]-1′,1′,3,3-tetrafluoro-11-methyl-spiro[1,10,19-triazatricyclo[10.5.2.0^ {15,18}]nonadeca-12 (19),13,15(18),16-tetraene-8,3′-cyclobutane]-9-one] has an IC50 of 102 nM.

— patent US11976083B2, “Inhibitors of peptidylarginine deiminases” (Gilead Sciences, Inc., priority 2020, dated 2024)
